Data published in patent US10301272B2, “Carboxamide or sulfonamide substituted thiazoles and related derivatives as modulators for the orphan nuclear receptor ROR[γ]” (Phenex Pharmaceuticals AG, priority 2012, dated 2019).
Where two headings read alike, the source gives them in different places.

What was measured:
[1] = target: RORγ ligand binding domain (LBD) (Homo sapiens (Human), UniProt P51449); assay: TR-FRET Activity Assay (ligand sensing assay, LANCE); conditions: for pIC50 (FRET): TR-FRET, interaction of RORγ-LBD with coactivator peptide
RORγ ligand binding domain (LBD), sequence (P51449 269-508): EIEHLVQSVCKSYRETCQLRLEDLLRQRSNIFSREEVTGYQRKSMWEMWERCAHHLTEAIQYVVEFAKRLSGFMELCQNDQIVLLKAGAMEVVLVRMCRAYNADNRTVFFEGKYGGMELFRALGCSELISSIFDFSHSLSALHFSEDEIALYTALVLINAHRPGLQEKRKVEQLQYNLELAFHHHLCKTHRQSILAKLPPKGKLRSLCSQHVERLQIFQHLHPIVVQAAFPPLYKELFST
Description: The ligand-binding domain (LBD) of RORγ was expressed as fusion protein with GST in BL-21 (BL3) cells using the vector pDEST15. Cells were lysed by lysozyme-treatment and sonication, and the fusion proteins purified over glutathione sepharose (Pharmacia) according to the manufacturers instructions. For screening of compounds for their influence on the RORγ-peptide interaction, the LANCE technology (Perkin Elmer) was applied. This method relies on the binding dependent energy transfer from a donor to an acceptor fluorophor attached to the binding partner of interest. For ease of handling and reduction of background from compound fluorescence LANCE technology makes use of generic fluorophore labels and time resolved detection assays were done in a final volume of 25 μL in a 384 well plate, in a Tris-based buffer system (20 mM Tris-HCl pH 6.8; 60 mM KCl, 1 mM DTT; 5 mM MgCl2; 35 ng/μL BSA), containing 20-60 ng/well recombinantly expressed RORγ-LBD fused to GST, 200-600 nM N-terminally biotinylated peptide, 200 ng/well Streptavidin-xlAPC conjugate (Prozyme) and 6-10 ng/well Eu W1024-antiGST (Perkin Elmer). DMSO content of the samples was kept at 1%.
After generation of the Tris-based buffer system, the potentially RORγ modulating ligands were diluted. […] The LANCE signal was detected by a Perkin Elmer EnVision™ Multilabel Counter. […] Ligands that promote the complex formation induce a concentration-dependent increase in time-resolved fluorescent signal.
Y is the response. Y starts at Bottom and goes to Top with a sigmoidal shape.
This is identical to the “four parameter logistic equation”. The IC50 values are calculated using this equation.

RORγ = RORγ (Homo sapiens, UniProt P51449); assay: RORγ Gal4 Reporter Gene Assay; type: cell-based; conditions: for IC50: 293T cells
RORγ, sequence (P51449 whole entry, looked up, the tested form may be a part): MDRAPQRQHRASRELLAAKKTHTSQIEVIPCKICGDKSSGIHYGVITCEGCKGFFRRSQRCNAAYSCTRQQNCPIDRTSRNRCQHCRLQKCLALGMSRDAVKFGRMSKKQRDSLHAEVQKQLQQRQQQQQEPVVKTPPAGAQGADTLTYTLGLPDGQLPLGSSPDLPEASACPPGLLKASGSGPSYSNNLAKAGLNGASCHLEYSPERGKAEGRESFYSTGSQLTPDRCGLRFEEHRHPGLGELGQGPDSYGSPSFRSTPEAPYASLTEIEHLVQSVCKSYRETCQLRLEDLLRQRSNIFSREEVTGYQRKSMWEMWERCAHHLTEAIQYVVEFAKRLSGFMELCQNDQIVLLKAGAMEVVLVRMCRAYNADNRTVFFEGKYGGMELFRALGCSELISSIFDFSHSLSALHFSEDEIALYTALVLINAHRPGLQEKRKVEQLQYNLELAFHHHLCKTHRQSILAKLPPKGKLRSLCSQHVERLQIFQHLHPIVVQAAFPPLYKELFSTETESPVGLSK
Summary of the method: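 Cells at 5×10^5/well were transfected with RORγ fragments fused to the GAL4 DNA-binding domain (CMV promoter), a 5×GAL4-site firefly luciferase reporter and CMV-Renilla luciferase for normalization. About 4 h later serum-free MEM and compound were added (vehicle ≤0.1%). Cultures at 37 °C, 5% CO2; at least triplicates.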

[2] = firefly (FF) luciferase, read-out: pIC50 (FF) (converted)
[3] = renilla normalised (RENnorm) luciferase, read-out: pIC50 (REN) (converted)

IC50 [1]	IC50 (RORγ; [2])	IC50 (RORγ; [3])	Compound	pIC50 (FRET) [1]	pIC50 (FF) (RORγ)	pIC50 (REN) (RORγ)
–	–	–	CC(C)(C)NS(=O)(=O)c1ccc(-c2sc(C(=O)N[C@H]3C[C@H](C(=O)O)C3)nc2CC2CCCCC2)cc1C(C)(C)O [7/17]	6.5/8.0/8.0	6.5/8.0/8.0	6.5/8.0/8.0
–	–	–	CC(C)(C)c1cc(-c2sc(C(=O)N[C@H]3C[C@H](C(=O)O)C3)nc2CC2CCCCC2)cc(C(C)(F)F)c1 [7/18]	6.4/7.4/7.4	6.4/7.4/7.4	6.4/7.4/7.4
> 20 µM	0.251 µM	0.251 µM	COc1ccc(-c2sc(C(=O)N[C@H]3C[C@H](C(=O)O)C3)nc2CC2CCCCC2)c2ccccc12 [7/20]	–	–	–
2 µM	0.126 µM	0.126 µM	O=C(N[C@H]1C[C@H](C(=O)O)C1)c1nc(CC2CCCCC2)c(-c2ccc(OC(F)(F)F)c3ccccc23)s1 [7/21]	–	–	–
> 20 µM	0.316 µM	0.631 µM	O=C(N[C@H]1C[C@H](C(=O)O)C1)c1nc(CC2CCCCC2)c(-c2ccc(OCC(F)(F)F)c3ccccc23)s1 [7/22]	–	–	–
–	–	–	CC(C)(C)NC(=O)c1ccc(-c2sc(C(=O)NC3CCS(=O)(=O)CC3)nc2CC2CCCCC2)c2ccccc12 [7/25]	6.2/6.6/6.5	6.2/6.6/6.5	6.2/6.6/6.5
–	–	–	CC1(C)COCCN1Cc1ccc(-c2sc(C(=O)NC3CCS(=O)(=O)CC3)nc2CC2CCCCC2)c2ccccc12 [7/26]	6.8/7.7/7.9	6.8/7.7/7.9	6.8/7.7/7.9
–	–	–	O=C(NC1CCS(=O)(=O)CC1)c1nc(CC2CCCCC2)c(-c2ccc(N3CCOCC3)c3ccccc23)s1 [7/27]	6.5	6.5/6.9/6.9	6.5/6.9/6.9
–	–	–	CC(C)(O)CNC(=O)c1nc(CC2CCCCC2)c(-c2ccc(S(=O)(=O)NC3(C(N)=O)CC3)c3ccccc23)s1 [8/3]	6.4/7.5/7.6	6.4/7.5/7.6	6.4/7.5/7.6
–	–	–	CC(C)(O)CNC(=O)c1nc(CC2CCCCC2)c(-c2ccc(S(=O)(=O)NC3(C)COC3)c3ccccc23)s1 [8/5]	6.4/8.5/8.7	6.4/8.5/8.7	6.4/8.5/8.7
–	–	–	C[C@H](NC(=O)c1cc(-c2sc(C(=O)NCC(C)(C)O)nc2CC2CCCCC2)cc(C2(C)CC2)c1)C(F)(F)F [8/6]	7.0/8.2/8.3	7.0/8.2/8.3	7.0/8.2/8.3
0.501 µM	0.0631 µM	0.0794 µM	CC(C)(C)c1cc(-c2sc(C(=O)N[C@H]3C[C@H](C(=O)O)C3)nc2CC2CCCCC2)cc(C(C)(C)C)n1 [8/8]	–	–	–
0.794 µM	0.126 µM	0.126 µM	CC(C)(C)c1cc(-c2sc(C(=O)N[C@H]3C[C@H](C(=O)O)C3)nc2CC2CCCCC2)cc(C(C)(C)C)[n+]1[O-] [8/9]	–	–	–
0.631 µM	0.158 µM	0.158 µM	CC(C)(C)c1cc(-c2sc(C(=O)N[C@H]3C[C@H](C(=O)O)C3)nc2CC2CCCCC2)cc(C(C)(C)O)n1 [8/10]	–	–	–
–	–	–	CC(C)(C)NS(=O)(=O)c1ccc(-c2sc(C(=O)N[C@H]3C[C@H](C(=O)O)C3)nc2CC2CCCCC2)cc1C(F)(F)F [9/2]	6.9/8.0/8.0	6.9/8.0/8.0	6.9/8.0/8.0
–	–	–	CC(C)(C)NS(=O)(=O)c1ccc(-c2sc(C(=O)NCC(C)(C)C(=O)O)nc2CC2CCCCC2)cc1C(F)(F)F [9/3]	6.4/7.2/7.4	6.4/7.2/7.4	6.4/7.2/7.4

IC50 [1]	IC50 (RORγ; [2])	IC50 (RORγ; [3])	Compound	pIC50 (FRET) [1]	pIC50 (FF) (RORγ)	pIC50 (REN) (RORγ)
–	–	–	CC(C)(O)c1cc(-c2sc(C(=O)N[C@H]3C[C@H](C(=O)O)C3)nc2CC2CCCCC2)cc(C2(C)CC2)c1 [9/4]	6.5/7.1/7.1	6.5/7.1/7.1	6.5/7.1/7.1
–	–	–	COC(C)(C)c1cc(-c2sc(C(=O)N[C@H]3C[C@H](C(=O)O)C3)nc2CC2CCCCC2)cc(C2(C)CC2)c1 [9/5]	6.7/7.8/7.9	6.7/7.8/7.9	6.7/7.8/7.9
–	–	–	CC(C)(C)NC(=O)c1cc(-c2sc(C(=O)N[C@H]3C[C@H](C(=O)O)C3)nc2CC2CCCCC2)cc(C(C)(C)C)c1 [9/7]	6.2/7.4/7.5	6.2/7.4/7.5	6.2/7.4/7.5
–	–	–	CC1(c2cc(-c3sc(C(=O)N[C@H]4C[C@H](C(=O)O)C4)nc3CC3CCCCC3)cc(C(F)(F)F)c2)CC1 [9/8]	6.5/7.1/7.1	6.5/7.1/7.1	6.5/7.1/7.1
–	–	–	CC1(c2cc(Cl)cc(-c3sc(C(=O)N[C@H]4C[C@H](C(=O)O)C4)nc3CC3CCCCC3)c2)CC1 [9/9]	5.4/6.9/7.0	5.4/6.9/7.0	5.4/6.9/7.0
–	–	–	CC(C)(O)c1cc(-c2sc(C(=O)N[C@H]3C[C@@H](C(=O)O)C3)nc2CC2CCCCC2)cc(C2(C)CC2)c1 [9/10]	6.3/7.2/7.2	6.3/7.2/7.2	6.3/7.2/7.2
–	–	–	CC(C)(C)NS(=O)(=O)c1ccc(-c2sc(C(=O)N[C@H]3C[C@H](C(=O)O)C3)nc2CC2CCCCC2)c2c1CCC2 [9/11]	6.6/8.5/8.5	6.6/8.5/8.5	6.6/8.5/8.5
–	–	–	CC1(c2cc(C(=O)NC3(C#N)CC3)cc(-c3sc(C(=O)NC4CCS(=O)(=O)CC4)nc3CC3CCCCC3)c2)CC1 [10/2]	6.6/7.3/7.4	6.6/7.3/7.4	6.6/7.3/7.4
–	–	–	CC(C)(C)NS(=O)(=O)c1ccc(-c2sc(S(N)(=O)=O)nc2CC2CCCCC2)cc1C(F)(F)F [13/2]	6.5/6.7/6.8	6.5/6.7/6.8	6.5/6.7/6.8
–	–	–	CC(C)(C)NS(=O)(=O)c1ccc(-c2sc(S(N)(=O)=O)nc2CC2CCCCC2)c2ccccc12 [13/3]	6.6/7.5/7.7	6.6/7.5/7.7	6.6/7.5/7.7
–	–	–	COCC(C)(C)NS(=O)(=O)c1ccc(-c2sc(C(=O)N3CC4(CCS(=O)(=O)CC4)C3)nc2CC2CCCCC2)c2ccccc12 [14/2]	6.5/7.4/7.4	6.5/7.4/7.4	6.5/7.4/7.4
–	–	–	O=C(c1nc(CC2CCCCC2)c(-c2ccc(S(=O)(=O)NC3CS(=O)(=O)C3)c3ccccc23)s1)N1CC2(CCS(=O)(=O)CC2)C1 [14/3]	6.6/6.4/6.4	6.6/6.4/6.4	6.6/6.4/6.4
–	–	–	O=C(c1nc(CC2CCCCC2)c(-c2ccc(S(=O)(=O)N3CCOCC3)c3ccccc23)s1)N1CC2(CCS(=O)(=O)CC2)C1 [14/4]	6.2/6.4/6.3	6.2/6.4/6.3	6.2/6.4/6.3
–	–	–	CNS(=O)(=O)c1ccc(-c2sc(C(=O)N3CC4(CCS(=O)(=O)CC4)C3)nc2CC2CCCCC2)c2ccccc12 [14/5]	6.3/6.6/6.6	6.3/6.6/6.6	6.3/6.6/6.6
–	–	–	CC(C)(C)NS(=O)(=O)c1ccc(-c2sc(C(=O)NC3C[S+]([O-])C3)nc2CC2CCCCC2)cc1C(C)(C)O (stereo not drawn) [15/2]	6.6/7.3/7.3	6.6/7.3/7.3	6.6/7.3/7.3

Compound	IC50 [1]	IC50 (RORγ; [2])	IC50 (RORγ; [3])	pIC50 (FRET) [1]	pIC50 (FF) (RORγ)	pIC50 (REN) (RORγ)
CC(C)(O)c1ccc(-c2sc(C(=O)NC3CCS(=O)(=O)CC3)nc2CC2CCCCC2)c2ccccc12 [7/23]	> 20 µM	–	–	–	<4.7/6.8/6.7	<4.7/6.8/6.7
